Experimental data from patent US20090258883A1, “1H-Indole-Pyridinecarboxamide and 1H-Indole-Piperidinecarboxamide Compounds” (LES LABORATOIRES SERVIER, priority 2005, published 2009).
Marks after values point to notes of the source that are not given here.

What was measured:
[1] = target: dopaminergic receptors (type D1) (Homo sapiens, UniProt P21728); test: Affinity for receptors, displacement of labelled specific ligand: D1; assay type: binding; settings: for inhibition at 10 µM: concentration 10^−5 M; for inhibition at 0.1 µM: concentration 10^−7 M
Sequence of dopaminergic receptors (type D1) (P21728 whole entry): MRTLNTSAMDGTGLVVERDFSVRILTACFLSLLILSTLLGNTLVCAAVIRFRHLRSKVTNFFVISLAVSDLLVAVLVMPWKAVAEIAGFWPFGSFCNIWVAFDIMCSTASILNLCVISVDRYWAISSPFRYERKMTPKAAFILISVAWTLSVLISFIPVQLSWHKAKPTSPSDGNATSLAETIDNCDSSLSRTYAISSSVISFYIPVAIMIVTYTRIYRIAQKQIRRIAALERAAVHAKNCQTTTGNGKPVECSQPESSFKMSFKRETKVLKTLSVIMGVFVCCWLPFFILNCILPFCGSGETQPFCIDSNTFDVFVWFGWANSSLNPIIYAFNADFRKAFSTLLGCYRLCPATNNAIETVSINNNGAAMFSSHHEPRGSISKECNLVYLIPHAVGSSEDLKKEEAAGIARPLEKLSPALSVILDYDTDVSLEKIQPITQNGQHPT

muscarinic (M) receptors = test: Affinity for receptors, displacement of labelled specific ligand: muscarinic; assay type: binding; settings: concentration 10^−5 M
Protocol: (§1) The affinity for receptors is determined according to customary methods of relations between the specific ligand and the receptor, which may be of animal origin or a human recombinant. The affinity was determined by the method of displacement of the labelled specific ligand by the compound under test and expressed by the dissociation constant KI. The receptor affinity was accordingly studied for 28 conventional receptors.

[2] = tested on: confluent endothelial cells from bovine capillaries; test: Predicted crossing of the blood-brain barrier (BBB); assay type: in vitro ADME; design: key: high; intermediate; low; settings: 20 μM in upper compartment, filter with bovine capillary endothelial cells, 10-60 minutes, LC-MS-MS
Protocol: The substances are incubated at 20 μM in the upper compartment of a double container, the upper compartment being separated from the lower compartment either solely by a polycarbonate filter or by the same filter covered with confluent endothelial cells from bovine capillaries. Evaluation of the permeability kinetics is carried out by means of LC-MS-MS quantification of the unchanged substance in the lower compartment after 10, 20, 30, 40 and 60 minutes.
The results are given in the form of the categories: high, intermediate, low.

[3] = tested on: sigma (σ) receptors (ligand: haloperidol); test: Affinity for receptors, displacement of labelled specific ligand: sigma; assay type: binding
Protocol: as §1

[4] = tested on: tyrosine hydroxylase (TH) protein; test: Induction of tyrosine hydroxylase (TH) in LC, SN and VTA of the mouse brain; assay type: in vivo, Balb/C mouse; settings: for amount of TH in LC section 1: LC section 1 (posterior-to-anterior); for amount of TH in LC section 1 / amount of TH, LC, total: i.p. 20 mg/kg; for amount of TH in LC section 1 / amount of TH in LC section 2 / amount of TH in LC section 3 / amount of TH in LC section 4 / amount of TH in LC section 5 / amount of TH in LC section 6 / amount of TH in LC section 7 / amount of TH in LC section 8 / amount of TH in LC section 9 / amount of TH in LC section 10 / amount of TH in LC section 11 / amount of TH, LC, total: three days after single injection; for amount of TH in LC section 1 / amount of TH in LC section 2 / amount of TH in LC section 3 / amount of TH in LC section 4 / amount of TH in LC section 5 / amount of TH in LC section 6 / amount of TH in LC section 7 / amount of TH in LC section 8 / amount of TH in LC section 9 / amount of TH in LC section 10 / amount of TH in LC section 11 / amount of TH, LC, total / TH induction in the SN / TH induction in the VTA: relative to mean value of control group; for amount of TH in LC section 2: LC section 2, i.p. 20 mg/kg; for amount of TH in LC section 3: LC section 3, i.p. 20 mg/kg; for amount of TH in LC section 4: LC section 4, i.p. 20 mg/kg; for amount of TH in LC section 5: LC section 5, i.p. 20 mg/kg; for amount of TH in LC section 6: LC section 6, i.p. 20 mg/kg; for amount of TH in LC section 7: LC section 7, i.p. 20 mg/kg; for amount of TH in LC section 8: LC section 8, i.p. 20 mg/kg; for amount of TH in LC section 9: LC section 9, i.p. 20 mg/kg; for amount of TH in LC section 10: LC section 10, i.p. 20 mg/kg; for amount of TH in LC section 11: LC section 11, i.p. 20 mg/kg; for TH induction in the SN: substantia nigra; for TH induction in the SN / TH induction in the VTA: single i.p. injection; for TH induction in the VTA: ventral tegmental area
From the text: A search is made among the compounds for those which are capable of bringing about an increase in the tyrosine hydroxylase (TH) protein in the locus coeruleus (LC), substantia nigra (SN) and ventral tegmental area (VTA) of the brain of the Balb/C mouse. The animals used are consanguinal male mice of the pure Balb/C strain (Charles River Laboratories) aged 6 weeks at the time of treatment.
The mice are given a single injection, by the intraperitoneal route, of the compound under test, dissolved in 0.04M HCl solution (corresponding control: 0.04M HCl), if the compound is sufficiently soluble, or in olive oil 90%/DMSO 10% (corresponding control: olive oil 90%/DMSO 10%) for compounds that are insoluble in an aqueous medium. The volume injected is 100 μl. The test groups comprise 10 animals.
Three days after the injection of each compound, all the animals are sacrificed by decapitation. The brains are removed and then frozen in an isopentane solution at −30° C. for 45 seconds and subsequently stored at −80° C.
Serial coronal sections 20 microns thick are then taken using a cryomicrotome. Each structure of interest is then sampled along the posterior-anterior axis of the brain by taking sections at 80-micron spacings in the case of the LC and at 80- or 160-micron spacings in the case of the VTA and SN. The limits of those structures are those described in the atlas of Franklin and Paxinos. The total proteins of each of those sections are transferred by direct collection of the sections to a nitrocellulose filter (Millipore). The amounts of TH present in each sample are measured by immunochemistry, fluorimetric detection and image analysis.

[5] = Predicted metabolic stability, human hepatic microsomes; assay type: in vitro ADME; settings: 10^−7 M, human hepatic microsomes 0.33 mg of prot/ml, NADPH
Protocol: (§2) The predicted metabolic stability is tested by incubation of the compounds at a concentration of 10^−7M in the presence of mouse, rat or human hepatic microsomes (0.33 mg of prot/ml). After addition of NADPH (nicotinamide adenine dinucleotide phosphate, reduced form), samples are taken at 0, 5, 15, 30 and 60 minutes. The enzymatic reaction is stopped using methanol (V/V). The protein is precipitated by centrifugation and the supernatant is analysed by LC-MS-MS.

[6] = Predicted metabolic stability, mouse hepatic microsomes; assay type: in vitro ADME; settings: 10^−7 M, mouse hepatic microsomes 0.33 mg of prot/ml, NADPH
Protocol: as §2

[7] = target: 5HT receptors (type 5HT2A) (Homo sapiens, UniProt P28223); test: Affinity for receptors, displacement of labelled specific ligand: 5HT2A; assay type: binding; settings: for inhibition at 10 µM: concentration 10^−5 M; for inhibition at 0.1 µM: concentration 10^−7 M
Sequence of 5HT receptors (type 5HT2A) (P28223 whole entry): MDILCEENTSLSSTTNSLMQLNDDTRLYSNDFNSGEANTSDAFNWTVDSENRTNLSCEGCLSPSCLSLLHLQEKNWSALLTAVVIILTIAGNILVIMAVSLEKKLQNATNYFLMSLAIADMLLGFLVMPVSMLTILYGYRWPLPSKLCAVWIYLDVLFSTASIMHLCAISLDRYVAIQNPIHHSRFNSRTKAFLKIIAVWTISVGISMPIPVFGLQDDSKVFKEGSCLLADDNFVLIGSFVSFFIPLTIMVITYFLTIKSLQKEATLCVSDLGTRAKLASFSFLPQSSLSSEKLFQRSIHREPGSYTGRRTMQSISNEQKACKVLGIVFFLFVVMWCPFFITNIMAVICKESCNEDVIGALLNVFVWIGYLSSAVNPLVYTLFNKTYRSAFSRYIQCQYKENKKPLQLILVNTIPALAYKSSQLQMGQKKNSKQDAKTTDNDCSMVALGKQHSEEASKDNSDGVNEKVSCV

[8] = target: dopaminergic receptors (type D2) (Homo sapiens, UniProt P14416); test: Affinity for receptors, displacement of labelled specific ligand: D2; assay type: binding; settings: for inhibition at 10 µM: concentration 10^−5 M; for inhibition at 0.1 µM: concentration 10^−7 M
Sequence of dopaminergic receptors (type D2) (P14416 whole entry): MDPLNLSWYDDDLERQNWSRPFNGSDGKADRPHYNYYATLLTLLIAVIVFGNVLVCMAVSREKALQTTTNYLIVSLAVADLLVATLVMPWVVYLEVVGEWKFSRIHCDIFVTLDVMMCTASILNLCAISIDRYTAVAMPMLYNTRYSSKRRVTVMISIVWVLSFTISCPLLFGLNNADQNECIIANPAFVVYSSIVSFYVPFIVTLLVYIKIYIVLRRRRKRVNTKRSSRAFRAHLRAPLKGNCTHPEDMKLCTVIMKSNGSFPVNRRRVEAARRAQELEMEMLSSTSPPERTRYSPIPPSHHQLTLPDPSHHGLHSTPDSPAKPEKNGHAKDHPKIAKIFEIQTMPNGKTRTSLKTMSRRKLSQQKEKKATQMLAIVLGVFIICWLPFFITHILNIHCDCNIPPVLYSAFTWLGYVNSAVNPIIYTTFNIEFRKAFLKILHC

Structure (SMILES): CN1CCC=C(C(=O)Nn2ccc3ccccc32)C1 [Example 1, N-(1H-indol-1-yl)-1-methyl-1,2,5,6-tetrahydropyridine-3-carboxamide]
- inhibition at 10 µM [1]: < 10%
- inhibition at 0.1 µM [1]: < 10%
- % inhibition M (muscarinic (M) receptors): 23%
- degree of crossing of the BBB (category) [2]: high
- % inhibition σ ([3]; concentration 10^−5 M): 44%
- amount of TH in LC section 1 [4]: 57%
- amount of TH in LC section 2 [4]: 72%
- amount of TH in LC section 3 [4]: 128%
- amount of TH in LC section 4 [4]: 128%
- amount of TH in LC section 5 [4]: 158* %
- amount of TH in LC section 6 [4]: 152* %
- amount of TH in LC section 7 [4]: 131%
- amount of TH in LC section 8 [4]: 107%
- amount of TH in LC section 9 [4]: 106%
- amount of TH in LC section 10 [4]: 95%
- amount of TH in LC section 11 [4]: 55%
- amount of TH, LC, total [4]: 121%
- TH induction in the SN, in words [4]: markedly induces TH
- TH induction in the VTA, in words [4]: markedly induces TH
- TH induction in the medial LC (sections 4, 5 and 6), in words ([4]; medial LC): markedly induces TH
- TH induction in the SN [4]: 155** %
- TH induction in the VTA [4]: 125%
- % metabolic stability predicted using hepatic microsomes, Human [5]: 70%
- % metabolic stability predicted using hepatic microsomes, Mouse [6]: 40%
- inhibition at 10 µM [7]: < 10%
- inhibition at 0.1 µM [7]: < 10%
- inhibition at 10 µM [8]: < 10%
- inhibition at 0.1 µM [8]: < 10%

Structure (SMILES): CN1CCC=C(C(=O)Nn2ccc3cc(F)ccc32)C1 [Example 7, N-(5-fluoro-1H-indol-1-yl)-1-methyl-1,2,5,6-tetrahydropyridine-3-carboxamide]
- inhibition at 10 µM [1]: < 10%
- inhibition at 0.1 µM [1]: < 10%
- degree of crossing of the BBB (category) [2]: high
- TH induction in the LC, in words [4]: induce TH only in the LC
- amount of TH in LC section 1 [4]: 113%
- amount of TH in LC section 2 [4]: 139* %
- amount of TH in LC section 3 [4]: 112%
- amount of TH in LC section 4 [4]: 119%
- amount of TH in LC section 5 [4]: 138** %
- amount of TH in LC section 6 [4]: 122%
- amount of TH in LC section 7 [4]: 141** %
- amount of TH in LC section 8 [4]: 131* %
- amount of TH in LC section 9 [4]: 96%
- amount of TH in LC section 10 [4]: 125%
- amount of TH in LC section 11 [4]: 106%
- amount of TH, LC, total [4]: 123** %
- TH induction in the SN [4]: 88* %
- TH induction in the VTA [4]: 94%
- inhibition at 10 µM [7]: < 10%
- inhibition at 0.1 µM [7]: < 10%
- inhibition at 10 µM [8]: < 10%
- inhibition at 0.1 µM [8]: < 10%

Structure (SMILES): C=CCN1CCCC(C(=O)Nn2ccc3cc(Cl)ccc32)C1 (centres unmarked) [Example 12, 1-Allyl-N-(5-chloro-1H-indol-1-yl)piperidine-3-carboxamide]
- inhibition at 10 µM [1]: < 10%
- inhibition at 0.1 µM [1]: < 10%
- % inhibition M (muscarinic (M) receptors): 51%
- % inhibition σ ([3]; concentration 10^−5 M): 85%
- % inhibition σ ([3]; concentration 10^−7 M): 18%
- TH induction in the LC, in words [4]: without increasing expression of the protein
- amount of TH in LC section 1 [4]: 57%
- amount of TH in LC section 2 [4]: 70%
- amount of TH in LC section 3 [4]: 80%
- amount of TH in LC section 4 [4]: 110%
- amount of TH in LC section 5 [4]: 114%
- amount of TH in LC section 6 [4]: 92%
- amount of TH in LC section 7 [4]: 95%
- amount of TH in LC section 8 [4]: 82%
- amount of TH in LC section 9 [4]: 98%
- amount of TH in LC section 10 [4]: 94%
- amount of TH in LC section 11 [4]: 26%
- amount of TH, LC, total [4]: 90%
- TH induction in the SN, in words [4]: induce TH in the SN
- TH induction in the VTA, in words [4]: without increasing expression of the protein
- TH induction in the SN [4]: 122* %
- TH induction in the VTA [4]: 95%
- inhibition at 10 µM [7]: < 10%
- inhibition at 0.1 µM [7]: < 10%
- inhibition at 10 µM [8]: < 10%
- inhibition at 0.1 µM [8]: < 10%

Structure (SMILES): O=C(Nn1ccc2ccccc21)C1CCCN(CCN2CCCCC2)C1 (centres unmarked) [Example 24, N-(1H-indol-1-yl)-1-[2-(1-piperidyl)ethyl]-3-piperidinecarboxamide]
- degree of crossing of the BBB (category) [2]: high
- amount of TH in LC section 1 [4]: 165* %
- amount of TH in LC section 2 [4]: 157* %
- amount of TH in LC section 3 [4]: 120%
- amount of TH in LC section 4 [4]: 127%
- amount of TH in LC section 5 [4]: 145* %
- amount of TH in LC section 6 [4]: 131** %
- amount of TH in LC section 7 [4]: 139* %
- amount of TH in LC section 8 [4]: 116%
- amount of TH in LC section 9 [4]: 139%
- amount of TH in LC section 10 [4]: 96%
- amount of TH in LC section 11 [4]: 94%
- amount of TH, LC, total [4]: 129** %

Structure (SMILES): CN1CCN(CCN2CCCC(C(=O)Nn3ccc4ccccc43)C2)CC1 (centres unmarked) [Example 25, N-(1H-indol-1-yl)-1-[2-(4-methyl-1-piperazinyl)ethyl]-3-piperidine-carboxamide]
- inhibition at 10 µM [1]: < 10%
- inhibition at 0.1 µM [1]: < 10%
- % inhibition M (muscarinic (M) receptors): 27%
- % inhibition σ ([3]; concentration 10^−5 M): 100%
- % inhibition σ ([3]; concentration 10^−7 M): 17%
- % metabolic stability predicted using hepatic microsomes, Human [5]: 63%
- % metabolic stability predicted using hepatic microsomes, Mouse [6]: 85%
- inhibition at 10 µM [7]: 14%
- inhibition at 0.1 µM [7]: 12%
- inhibition at 10 µM [8]: < 10%
- inhibition at 0.1 µM [8]: < 10%

Structure (SMILES): CN1CC[C@H](C(=O)Nn2ccc3ccccc32)[C@H](c2ccc(F)cc2)C1 [Example 38, (3R,4S)-3-(4-Fluorophenyl)-N-(1H-indol-1-yl)-1-methylpiperidine-4-carboxamide]
- melting point: 134 °C
